Reference: ChEMBL document CHEMBL4145551, “Mitochondria-targeting indolizino[3,2-c]quinolines as novel class of photosensitizers for photodynamic anticancer activity” (Eur J Med Chem, 2018)
Values belong to the compound of their own block, whether it stands above or below them. The source made the active and inactive calls. No cut-off for these calls is given here.

How the values were obtained:
[1] = test system: A549; test: Photocytotoxicity against human A549 cells assessed as reduction in cell viability preincubated for 1 hr followed blue LED light irradiation for 5 mins and measured after 24 hrs by MTT assay; assay type: functional, cell-based; conditions: for IC50: A549, light or radiation study
[2] = test system: A549; test: Photocytotoxicity against human A549 cells assessed as reduction in cell viability preincubated for 1 hr followed blue LED light irradiation for 10 mins and measured after 24 hrs by MTT assay; assay type: functional, cell-based; conditions: for IC50: A549, light or radiation study
[3] = Dark toxicity in human HeLa cells assessed as reduction in cell viability up to 10 uM measured after 24 hrs by MTT assay; assay type: cell-based
[4] = Dark toxicity in human A549 cells assessed as reduction in cell viability up to 10 uM measured after 24 hrs by MTT assay; assay type: cell-based; conditions: a549, 24 h
[5] = test system: HeLa; test: Photocytotoxicity against human HeLa cells assessed as DNA fragmentation up to 10 uM preincubated for 1 hr followed by blue LED light irradiation for 5 mins and measured after 13 hrs by Hoechst 33258 staining based fluorescence microscopic method; assay type: functional, cell-based
[6] = test system: HeLa; test: Induction of ROS generation in human HeLa cells preincubated for 1 hr followed by blue LED light irradiation for 15 mins by DHE staining based HCS analysis; assay type: functional, cell-based
[7] = test system: HeLa; test: Photocytotoxicity against human HeLa cells assessed as plasma membrane blebbing up to 10 uM preincubated for 1 hr followed by blue LED light irradiation for 5 mins and measured after 13 hrs by Hoechst 33258 staining based fluorescence microscopic method; assay type: functional, cell-based
[8] = Dark toxicity in human MCF7 cells assessed as reduction in cell viability up to 10 uM measured after 24 hrs by MTT assay; assay type: cell-based; conditions: mcf7, 24 h
[9] = test system: MCF7; test: Photocytotoxicity against human MCF7 cells assessed as reduction in cell viability preincubated for 1 hr followed blue LED light irradiation for 5 mins and measured after 24 hrs by MTT assay; assay type: functional, cell-based; conditions: for IC50: MCF7, light or radiation study
[10] = test system: DNA; test: Induction of Escherichia coli pBR322 DNA cleavage irradiated with blue LED light after 30 mins by agarose gel electrophoresis method; assay type: nucleic-acid assay
[11] = test system: DNA; test: Induction of Escherichia coli pBR322 DNA cleavage at 20 uM after 30 mins under dark condition by agarose gel electrophoresis method; assay type: nucleic-acid assay; conditions: 0.5 h
[12] = test system: HeLa; test: Photocytotoxicity against human HeLa cells assessed as cellular shrinkage up to 10 uM preincubated for 1 hr followed by blue LED light irradiation for 5 mins and measured after 13 hrs by Hoechst 33258 staining based fluorescence microscopic method; assay type: functional, cell-based
[13] = test system: HeLa; test: Photocytotoxicity against human HeLa cells assessed as reduction in cell viability at 2 uM preincubated for 1 hr followed blue LED light irradiation for 5 mins and measured after 24 hrs in presence of singlet oxygen scavenger histidine by MTT assay; assay type: functional, cell-based
[14] = test system: HeLa; test: Photocytotoxicity against human HeLa cells assessed as chromatin condensation up to 10 uM preincubated for 1 hr followed by blue LED light irradiation for 5 mins and measured after 13 hrs by Hoechst 33258 staining based fluorescence microscopic method; assay type: functional, cell-based
[15] = test system: HeLa; test: Photocytotoxicity against human HeLa cells assessed as reduction in cell viability preincubated for 1 hr followed blue LED light irradiation for 10 mins and measured after 24 hrs by MTT assay; assay type: functional, cell-based; conditions: for IC50: light or radiation study
[16] = Induction of singlet oxygen production assessed as photodegradation of DPBF by measuring quantum yield after irradiation with 356 nanometer light by UV-Visible spectroscopic analysis; assay type: functional
[17] = test system: MCF7; test: Photocytotoxicity against human MCF7 cells assessed as reduction in cell viability preincubated for 1 hr followed blue LED light irradiation for 10 mins and measured after 24 hrs by MTT assay; assay type: functional, cell-based; conditions: for IC50: MCF7, light or radiation study
[18] = test system: HeLa; test: Photocytotoxicity against human HeLa cells assessed as reduction in cell viability preincubated for 1 hr followed blue LED light irradiation for 5 mins and measured after 24 hrs by MTT assay; assay type: functional, cell-based; conditions: for IC50: light or radiation study
[19] = test system: HeLa; test: Photocytotoxicity against human HeLa cells assessed as cell death at 0.5 uM preincubated for 1 hr followed blue LED light irradiation for 5 mins and measured after 24 hrs by MTT assay relative to control; assay type: functional
[20] = test system: HeLa; test: Photocytotoxicity against human HeLa cells assessed as morphological changes at 5 uM preincubated for 1 hr followed by blue LED light irradiation for 10 mins and measured after 2.5 hrs by holotomographic method; assay type: functional, cell-based
[21] = Drug uptake in human HeLa cell mitochondria at 10 uM after 1 hr by mitotracker red staining based confocal laser scanning microscopic method; assay type: ADME
[22] = test system: DNA; test: Induction of Escherichia coli pBR322 DNA cleavage at 20 uM irradiated with blue LED light after 30 mins in presence of H2O2 scavenger KI by agarose gel electrophoresis method; assay type: nucleic-acid assay
[23] = test system: HeLa; test: Photocytotoxicity against human HeLa cells assessed as cell membrane blebbing at 10 uM preincubated for 1 hr followed by blue LED light irradiation for 5 mins by differential interference contrast imaging analysis; assay type: functional, cell-based
[24] = test system: MCF7; test: Photocytotoxicity against human MCF7 cells assessed as induction of mitochondrial membrane potential depolarization at 10 uM preincubated for 1 hr followed by blue LED light irradiation for 5 mins by TMRE staining based confocal microscopic method; assay type: functional, cell-based
[25] = test system: DNA; test: Induction of Escherichia coli pBR322 DNA cleavage at 20 uM irradiated with blue LED light after 30 mins in presence of hydroxyl radical scavenger mannitol by agarose gel electrophoresis method; assay type: nucleic-acid assay
[26] = test system: DNA; test: Induction of Escherichia coli pBR322 DNA cleavage at 20 uM irradiated with blue LED light after 30 mins in presence of singlet oxygen scavenger sodium azide by agarose gel electrophoresis method; assay type: nucleic-acid assay
[27] = test system: HeLa; test: Photocytotoxicity against human HeLa cells assessed as induction of mitochondrial membrane potential depolarization at 10 uM preincubated for 1 hr followed by blue LED light irradiation for 5 mins by TMRE staining based confocal microscopic method; assay type: functional, cell-based

Activity [10]: Dose-dependent effect
Structure (SMILES): c1csc(-c2nc3ccccc3c3cc4ccccn4c23)c1
Activity [1]: Dose-dependent effect | IC50 [1]: 4150 nM | Activity [2]: Dose-dependent effect | IC50 [2]: 1990 nM | Activity [3]: Non-Toxic | Activity [4]: Non-Toxic | Activity [5]: Active | Activity [6]: Dose-dependent effect | Activity [7]: Active | Activity [8]: Non-Toxic | Activity [9]: Dose-dependent effect | IC50 [9]: 3460 nM | Activity [11]: Non-Toxic | Activity [12]: Active | Activity [13]: inactive | Activity [14]: Active | Activity [15]: Dose-dependent effect | IC50 [15]: 630 nM | Activity [16]: 0.4 | Activity [17]: Dose-dependent effect | IC50 [17]: 1550 nM | Activity [18]: Dose-dependent effect | IC50 [18]: 1450 nM

Structure (SMILES): Clc1ccc(-c2nc3ccccc3c3cc4ccccn4c23)s1
Activity [1]: Dose-dependent effect | IC50 [1]: 1330 nM | Activity [2]: Dose-dependent effect | IC50 [2]: 1030 nM | Activity [3]: Non-Toxic | Activity [19]: >50% | Activity [4]: Non-Toxic | Activity [5]: Active | Activity [6]: Dose-dependent effect | Activity [7]: Active | Activity [20]: Active | Activity [8]: Non-Toxic | Activity [9]: Dose-dependent effect | IC50 [9]: 1680 nM | Activity [11]: Non-Toxic | Activity [12]: Active | Activity [14]: Active | Activity [15]: Dose-dependent effect | IC50 [15]: 410 nM | Activity [16]: 0.47 | Activity [17]: Dose-dependent effect | IC50 [17]: 1040 nM | Activity [18]: Dose-dependent effect | IC50 [18]: 490 nM

Activity [10]: Dose-dependent effect
Structure (SMILES): Brc1ccc2cc3c4ccccc4nc(-c4ccco4)c3n2c1
Activity [1]: Dose-dependent effect | IC50 [1]: 2160 nM | Activity [2]: Dose-dependent effect | IC50 [2]: 1590 nM | Activity [3]: Toxic | Activity [4]: Toxic | Activity [5]: Active | Activity [6]: Dose-dependent effect | Activity [7]: Active | Activity [8]: Toxic | Activity [9]: Dose-dependent effect | IC50 [9]: 1330 nM | Activity [11]: Non-Toxic | Activity [12]: Active | Activity [14]: Active | Activity [15]: Dose-dependent effect | IC50 [15]: 810 nM | Activity [16]: 0.6 | Activity [17]: Dose-dependent effect | IC50 [17]: 830 nM | Activity [18]: Dose-dependent effect | IC50 [18]: 1140 nM

Drug uptake [21]: Active | Activity [10]: Dose-dependent effect | Activity [22]: inactive | Activity [25]: Active | Activity [26]: inactive
Structure (SMILES): Cc1cccn2c1cc1c3ccccc3nc(-c3cccs3)c12
Activity [1]: Dose-dependent effect | IC50 [1]: 3380 nM | Activity [2]: Dose-dependent effect | IC50 [2]: 1990 nM | Activity [3]: Non-Toxic | Activity [4]: Non-Toxic | Activity [5]: Active | Activity [6]: Dose-dependent effect | Activity [7]: Active | Activity [8]: Non-Toxic | Activity [9]: Dose-dependent effect | IC50 [9]: 2680 nM | Activity [11]: Non-Toxic | Activity [12]: Active | Activity [13]: inactive | Activity [23]: Active | Activity [14]: Active | Activity [15]: Dose-dependent effect | IC50 [15]: 550 nM | Activity [24]: Active | Activity [16]: 0.42 | Activity [17]: Dose-dependent effect | IC50 [17]: 1390 nM | Activity [27]: Active | Activity [18]: Dose-dependent effect | IC50 [18]: 1170 nM

Structure (SMILES): Cc1cccn2c1cc1c3ccccc3nc(-c3ccc(Cl)o3)c12
Activity [1]: Dose-dependent effect | IC50 [1]: 1430 nM | Activity [2]: Dose-dependent effect | IC50 [2]: 1130 nM | Activity [3]: Non-Toxic | Activity [4]: Non-Toxic | Activity [5]: Active | Activity [6]: Dose-dependent effect | Activity [7]: Active | Activity [8]: Non-Toxic | Activity [9]: Dose-dependent effect | IC50 [9]: 930 nM | Activity [11]: Non-Toxic | Activity [12]: Active | Activity [14]: Active | Activity [15]: Dose-dependent effect | IC50 [15]: 2070 nM | Activity [16]: 0.38 | Activity [17]: Dose-dependent effect | IC50 [17]: 620 nM | Activity [18]: Dose-dependent effect | IC50 [18]: 3510 nM
